As usually defined, the IC50 is the concentration needed to halve the response being measured. Read a high IC50 as a need for much substance.

Molecules are shown by their SMILES.

The target of series [1] is T1, BDNF/NT-3 growth factors receptor (Homo sapiens, UniProt Q16620). Put plainly: Inhibition of wild type human N-terminal GST-fusion tagged TRKB kinase domain (456 to 822 residues) expressed in baculovirus expression system by HTRF assay.
The target of series [2] is T1, BDNF/NT-3 growth factors receptor. Put plainly: Binding affinity to TRKB (unknown origin) assessed as dimerization by size exclusion chromatography.

T1 sequence (Q16620 whole entry, the tested form may be a part): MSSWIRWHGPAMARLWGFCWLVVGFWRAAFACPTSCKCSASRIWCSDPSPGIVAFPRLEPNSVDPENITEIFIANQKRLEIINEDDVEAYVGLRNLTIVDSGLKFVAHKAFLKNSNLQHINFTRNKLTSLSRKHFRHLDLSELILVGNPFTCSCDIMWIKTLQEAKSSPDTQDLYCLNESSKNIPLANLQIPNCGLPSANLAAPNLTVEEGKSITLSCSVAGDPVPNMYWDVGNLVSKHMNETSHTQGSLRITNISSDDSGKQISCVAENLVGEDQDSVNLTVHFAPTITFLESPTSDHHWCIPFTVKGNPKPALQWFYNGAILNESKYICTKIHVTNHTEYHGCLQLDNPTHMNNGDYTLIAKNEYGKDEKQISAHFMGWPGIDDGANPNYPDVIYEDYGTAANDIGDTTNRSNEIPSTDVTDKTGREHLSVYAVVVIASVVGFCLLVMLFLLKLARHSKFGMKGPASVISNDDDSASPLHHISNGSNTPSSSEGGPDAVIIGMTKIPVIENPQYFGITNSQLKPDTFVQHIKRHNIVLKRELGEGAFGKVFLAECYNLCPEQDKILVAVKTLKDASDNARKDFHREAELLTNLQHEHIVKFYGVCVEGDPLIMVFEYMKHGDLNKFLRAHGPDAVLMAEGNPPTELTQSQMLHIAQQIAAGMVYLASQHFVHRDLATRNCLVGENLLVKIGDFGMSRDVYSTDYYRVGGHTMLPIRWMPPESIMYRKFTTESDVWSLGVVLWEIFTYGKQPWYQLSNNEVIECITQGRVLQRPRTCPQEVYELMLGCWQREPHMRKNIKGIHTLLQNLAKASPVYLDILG

Take `CC(C)Oc1cc(Nc2nc(N[C@@H](C)c3ccc(F)cn3)ncc2Cl)n[nH]1`: in series [1], the IC50 was determined as 0.00093 µM.
With `Nc1c(N2CCN(C3CCCCC3)CC2)cc(Nc2ccc(C(=O)O)cc2)c2c1C(=O)c1ccccc1C2=O`, in series [2], the Activity entry was “Not Active”. In series [1], this molecule displayed an IC50 of 94 µM.
